The results in this text go back to article PMC4965777, “Molecular characterization of Tps1 and Treh genes in Drosophila and their role in body water homeostasis” (Scientific Reports, 2016).

Format in all cases: biochemical
Experiment [1] concerns the target T1, CG5171 (Drosophila melanogaster, UniProt Q9VM19).
T1 construct: gene Tpp; N-terminal His-tag (pET28a), E. coli BL21(DE3), Ni-NTA
T1 sequence (Q9VM19 1-273): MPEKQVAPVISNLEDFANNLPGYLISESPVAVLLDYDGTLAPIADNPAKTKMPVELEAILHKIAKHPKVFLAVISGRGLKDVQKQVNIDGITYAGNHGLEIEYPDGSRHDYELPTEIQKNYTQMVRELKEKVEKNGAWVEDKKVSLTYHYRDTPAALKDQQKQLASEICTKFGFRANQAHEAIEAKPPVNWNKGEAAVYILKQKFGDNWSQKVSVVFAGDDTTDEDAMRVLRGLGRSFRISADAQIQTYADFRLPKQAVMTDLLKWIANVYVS
Put plainly: dephosphorylation; trehalose released determined with trehalase and glucose assay kit. Conditions: 0.5 mM T6P; 5 mM MgCl2; PBS-type phosphate buffer pH 7.4; 30 °C; 0.02 nmol enzyme in 30 μl.

Experiment [2] deals with T2, Tps1-TPP (Drosophila melanogaster, UniProt Q9Y119).
T2 construct: C-terminal TPP domain only (borders not in text), N-terminal His-tag (pET28a), E. coli BL21(DE3), Ni-NTA
The experiment is described as above. Conditions: 0.5 mM T6P; 5 mM MgCl2; PBS-type phosphate buffer pH 7.4; 30 °C; 0.02 nmol enzyme in 30 μl.

Experiment [3] deals with T3, OtsB (Escherichia coli, UniProt P31678).
T3 construct: N-terminal His-tag (pET28a), E. coli BL21(DE3), Ni-NTA
The description is as above. The note with it: 0.5 mM T6P; 5 mM MgCl2; PBS-type phosphate buffer pH 7.4; 30 °C; 0.02 nmol enzyme in 30 μl.

For experiment [4], the target named is T4, cTreh (Drosophila melanogaster, UniProt A4UZR3).
T4 construct: gene Treh; cytoplasmic isoform without signal peptide, N-terminal His-tag (pET28a), E. coli BL21(DE3), Ni-NTA
T4 sequence (A4UZR3 1-560): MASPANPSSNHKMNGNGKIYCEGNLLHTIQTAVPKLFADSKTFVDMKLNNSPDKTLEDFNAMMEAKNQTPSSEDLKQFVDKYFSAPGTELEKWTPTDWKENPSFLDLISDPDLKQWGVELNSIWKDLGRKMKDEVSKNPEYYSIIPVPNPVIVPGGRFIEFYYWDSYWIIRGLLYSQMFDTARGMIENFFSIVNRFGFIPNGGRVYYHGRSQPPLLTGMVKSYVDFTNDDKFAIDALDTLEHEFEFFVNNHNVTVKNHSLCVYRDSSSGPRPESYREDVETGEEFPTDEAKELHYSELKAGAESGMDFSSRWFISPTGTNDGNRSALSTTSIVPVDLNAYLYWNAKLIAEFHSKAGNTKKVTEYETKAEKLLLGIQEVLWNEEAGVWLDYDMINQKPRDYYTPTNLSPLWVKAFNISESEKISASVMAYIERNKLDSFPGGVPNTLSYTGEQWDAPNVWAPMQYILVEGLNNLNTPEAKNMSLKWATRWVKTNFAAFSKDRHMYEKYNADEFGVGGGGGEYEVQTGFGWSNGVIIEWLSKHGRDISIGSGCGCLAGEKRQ
Put plainly: trehalose hydrolysis; glucose released determined with glucose assay kit. The note with it: 5 μg trehalose; 0.12 pmol His-cTreh in 15 μl PBS; 30 °C, 2 h.

T2 sequence (Q9Y119 entry or part of it): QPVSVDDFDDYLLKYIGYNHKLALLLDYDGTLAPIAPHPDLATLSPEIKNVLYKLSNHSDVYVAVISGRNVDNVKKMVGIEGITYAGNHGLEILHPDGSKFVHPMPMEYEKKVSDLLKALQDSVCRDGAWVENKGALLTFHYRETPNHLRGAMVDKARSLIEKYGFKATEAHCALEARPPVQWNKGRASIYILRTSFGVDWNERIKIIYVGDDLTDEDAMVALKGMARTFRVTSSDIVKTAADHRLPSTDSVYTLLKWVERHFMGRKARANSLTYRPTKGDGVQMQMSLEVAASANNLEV
T3 sequence (P31678 whole entry): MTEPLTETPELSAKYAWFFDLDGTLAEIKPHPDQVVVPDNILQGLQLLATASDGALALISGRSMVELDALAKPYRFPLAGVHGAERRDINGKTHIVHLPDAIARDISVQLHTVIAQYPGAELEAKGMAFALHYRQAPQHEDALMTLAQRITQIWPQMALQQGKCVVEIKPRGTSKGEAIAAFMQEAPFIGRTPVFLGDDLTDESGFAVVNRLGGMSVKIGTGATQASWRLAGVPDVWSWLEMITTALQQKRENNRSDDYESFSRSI

With `O=P(O)(O)OC[C@H]1O[C@H](O[C@H]2O[C@H](CO)[C@@H](O)[C@H](O)[C@H]2O)[C@H](O)[C@@H](O)[C@@H]1O` [trehalose-6-phosphate], the “dephosphorylation; trehalose released determined with trehalase and glucose assa” value in experiment [1] is “recombinant Tps1-TPP and CG5171, but not CG5177, dephosphorylated T6P under our experimental conditions”; in experiment [2], “recombinant Tps1-TPP and CG5171, but not CG5177, dephosphorylated T6P under our experimental conditions”; in experiment [3], “Tps1-TPP showed a lower activity than CG5171 and OtsB in vitro”.
For the compound `OC[C@H]1O[C@H](O[C@H]2O[C@H](CO)[C@@H](O)[C@H](O)[C@H]2O)[C@H](O)[C@@H](O)[C@@H]1O` [trehalose], the “trehalose hydrolysis; glucose released determined with glucose assay kit” value in experiment [4] is listed as “The recombinant cTreh exhibited a specific breakdown of trehalose to produce glucose in vitro”.
